Experimental data: ChEMBL document CHEMBL2331144, “Synthesis and anticancer activity of analogues of phenstatin, with a phenothiazine A-ring, as a new class of microtubule-targeting agents” (Bioorg Med Chem Lett, 2013)

Key:
SK-OV-3 = test: Growth inhibition of human SKOV3 cells after 48 hrs by sulforhodamine B assay; type: functional; details: SK-OV-3, 48 h
T47D = test: Growth inhibition of human T47D cells after 48 hrs by sulforhodamine B assay; type: functional
IGROV-1 = test: Growth inhibition of human IGROV1 cells after 48 hrs by sulforhodamine B assay; type: functional; details: IGROV-1, 48 h
[1] = Growth inhibition of human Hs 578T cells after 48 hrs by sulforhodamine B assay; type: functional
SNB-75 = test: Growth inhibition of human SNB75 cells after 48 hrs by sulforhodamine B assay; type: functional; details: SNB-75, 48 h
CAKI-1 = test: Growth inhibition of human CAKI-1 cells after 48 hrs by sulforhodamine B assay; type: functional; details: CAKI-1, 48 h
[2] = Growth inhibition of human HCC2998 cells after 48 hrs by sulforhodamine B assay; type: functional; details: HCC 2998, 48 h
Malme-3M = test: Growth inhibition of human MALME-3M cells after 48 hrs by sulforhodamine B assay; type: functional
SF-268 = test: Growth inhibition of human SF268 cells after 48 hrs by sulforhodamine B assay; type: functional; details: SF-268, 48 h
HOP-92 = test: Growth inhibition of human HOP92 cells after 48 hrs by sulforhodamine B assay; type: functional; details: HOP-92, 48 h
COLO 205 = test: Growth inhibition of human COLO205 cells after 48 hrs by sulforhodamine B assay; type: functional; details: COLO 205, 48 h
NCI-H522 = test: Growth inhibition of human NCI-H522 cells after 48 hrs by sulforhodamine B assay; type: functional; details: NCI-H522, 48 h
UACC-62 = test: Growth inhibition of human UACC62 cells after 48 hrs by sulforhodamine B assay; type: functional; details: UACC-62, 48 h
MDA-MB-231 = test: Growth inhibition of human MDA-MB-231 cells after 48 hrs by sulforhodamine B assay; type: functional; details: MDA-MB-231, 48 h
OVCAR-4 = test: Growth inhibition of human OVCAR4 cells after 48 hrs by sulforhodamine B assay; type: functional; details: OVCAR-4, 48 h
A549 = test: Growth inhibition of human A549/ATCC cells after 48 hrs by sulforhodamine B assay; type: functional; details: A549, 48 h
K562 = test: Growth inhibition of human K562 cells after 48 hrs by sulforhodamine B assay; type: functional; details: K562, 48 h
CCRF-CEM = test: Growth inhibition of human CCRF-CEM cells after 48 hrs by sulforhodamine B assay; type: functional
MCF7 = test: Growth inhibition of human MCF7 cells after 48 hrs by sulforhodamine B assay; type: functional; details: MCF7, 48 h
DU-145 = test: Growth inhibition of human DU145 cells after 48 hrs by sulforhodamine B assay; type: functional; details: DU-145, 48 h
NCI-H460 = test: Growth inhibition of human NCI-H460 cells after 48 hrs by sulforhodamine B assay; type: functional; details: NCI-H460, 48 h
LOX IMVI = test: Growth inhibition of human LOXIMVI cells after 48 hrs by sulforhodamine B assay; type: functional
[3] = Growth inhibition of human EKVX cells after 48 hrs by sulforhodamine B assay; type: functional
HCT-116 = test: Growth inhibition of human HCT116 cells after 48 hrs by sulforhodamine B assay; type: functional; details: HCT-116, 48 h
Ovis aries = species on record: Ovis aries; test: Inhibition of sheep brain tubulin polymerization at 100 uM using DAPI by fluorimetry
SN12C = test: Growth inhibition of human SN12C cells after 48 hrs by sulforhodamine B assay; type: functional
HOP-62 = test: Growth inhibition of human HOP62 cells after 48 hrs by sulforhodamine B assay; type: functional; details: HOP-62, 48 h
SW-620 = test: Growth inhibition of human SW620 cells after 48 hrs by sulforhodamine B assay; type: functional; details: SW-620, 48 h
HCT-15 = test: Growth inhibition of human HCT15 cells after 48 hrs by sulforhodamine B assay; type: functional; details: HCT-15, 48 h
MOLT-4 = test: Growth inhibition of human MOLT4 cells after 48 hrs by sulforhodamine B assay; type: functional; details: MOLT-4, 48 h
TK-10 = test: Growth inhibition of human TK10 cells after 48 hrs by sulforhodamine B assay; type: functional; details: TK-10, 48 h
SK-MEL-28 = test: Growth inhibition of human SK-MEL-28 cells after 48 hrs by sulforhodamine B assay; type: functional; details: SK-MEL-28, 48 h
UACC-257 = test: Growth inhibition of human UACC257 cells after 48 hrs by sulforhodamine B assay; type: functional; details: UACC-257, 48 h
BT-549 = test: Growth inhibition of human BT549 cells after 48 hrs by sulforhodamine B assay; type: functional; details: BT-549, 48 h
[4] = Growth inhibition of human NCI-ADR-RES cells after 48 hrs by sulforhodamine B assay; type: functional
OVCAR-3 = test: Growth inhibition of human OVCAR3 cells after 48 hrs by sulforhodamine B assay; type: functional; details: OVCAR-3, 48 h
SK-MEL-5 = test: Growth inhibition of human SK-MEL-5 cells after 48 hrs by sulforhodamine B assay; type: functional; details: SK-MEL-5, 48 h
M14 = test: Growth inhibition of human M14 cells after 48 hrs by sulforhodamine B assay; type: functional; details: M14, 48 h
OVCAR-5 = test: Growth inhibition of human OVCAR5 cells after 48 hrs by sulforhodamine B assay; type: functional; details: OVCAR-5, 48 h
OVCAR-8 = test: Growth inhibition of human OVCAR8 cells after 48 hrs by sulforhodamine B assay; type: functional; details: OVCAR-8, 48 h
SF-539 = test: Growth inhibition of human SF539 cells after 48 hrs by sulforhodamine B assay; type: functional; details: SF-539, 48 h
786-0 = test: Growth inhibition of human 786-0 cells after 48 hrs by sulforhodamine B assay; type: functional; details: 786-0, 48 h
SF-295 = test: Growth inhibition of human SF295 cells after 48 hrs by sulforhodamine B assay; type: functional; details: SF-295, 48 h
MDA-MB-435 = test: Growth inhibition of human MDA-MB-435 cells after 48 hrs by sulforhodamine B assay; type: functional; details: MDA-MB-435, 48 h
HL-60(TB) = test: Growth inhibition of human HL-60(TB) cells after 48 hrs by sulforhodamine B assay; type: functional; details: HL-60, 48 h
PC-3 = test: Growth inhibition of human PC3 cells after 48 hrs by sulforhodamine B assay; type: functional; details: PC-3, 48 h
SR = test: Growth inhibition of human SR cells after 48 hrs by sulforhodamine B assay; type: functional
KM12 = test: Growth inhibition of human KM12 cells after 48 hrs by sulforhodamine B assay; type: functional; details: KM12, 48 h
HT-29 = test: Growth inhibition of human HT-29 cells after 48 hrs by sulforhodamine B assay; type: functional; details: HT-29, 48 h
A498 = test: Growth inhibition of human A498 cells after 48 hrs by sulforhodamine B assay; type: functional; details: A498, 48 h
UO-31 = test: Growth inhibition of human UO31 cells after 48 hrs by sulforhodamine B assay; type: functional; details: UO-31, 48 h
NCI-H23 = test: Growth inhibition of human NCI-H23 cells after 48 hrs by sulforhodamine B assay; type: functional; details: NCI-H23, 48 h
ACHN = test: Growth inhibition of human ACHN cells after 48 hrs by sulforhodamine B assay; type: functional
SK-MEL-2 = test: Growth inhibition of human SK-MEL-2 cells after 48 hrs by sulforhodamine B assay; type: functional; details: SK-MEL-2, 48 h
RPMI-8226 = test: Growth inhibition of human RPMI8226 cells after 48 hrs by sulforhodamine B assay; type: functional; details: RPMI-8226, 48 h
[5] = Inhibition of sheep brain tubulin polymerization using DAPI by fluorimetry; parameters: species or system Ovis aries
MDA-MB-468 = test: Growth inhibition of human MDA-MB-468 cells after 48 hrs by sulforhodamine B assay; type: functional; details: MDA-MB-468, 48 h
RXF 393 = test: Growth inhibition of human RXF393 cells after 48 hrs by sulforhodamine B assay; type: functional; details: RXF 393, 48 h

## O=C(c1ccc2c(c1)Sc1ccccc1N2)c1c[nH]c2ccccc12
SK-OV-3
  GI50: 533 nM
T47D
  GI50: 502 nM
IGROV-1
  GI50: 620 nM
[1]
  GI50: 702 nM
SNB-75
  GI50: 326 nM
CAKI-1
  GI50: 462 nM
[2]
  GI50: 976 nM
Malme-3M
  GI50: 997 nM
SF-268
  GI50: 1500 nM
HOP-92
  GI50: 970 nM
COLO 205
  GI50: 435 nM
NCI-H522
  GI50: 248 nM
UACC-62
  GI50: 532 nM
MDA-MB-231
  GI50: 1110 nM
OVCAR-4
  GI50: 16.5 µM
A549
  GI50: 634 nM
K562
  GI50: 395 nM
CCRF-CEM
  GI50: 380 nM
MCF7
  GI50: 293 nM
DU-145
  GI50: 1420 nM
NCI-H460
  GI50: 429 nM
LOX IMVI
  GI50: 446 nM
[3]
  GI50: 11.6 µM
HCT-116
  GI50: 404 nM
Ovis aries
  inhibition: 66%
SN12C
  GI50: 888 nM
HOP-62
  GI50: 670 nM
SW-620
  GI50: 406 nM
HCT-15
  GI50: 489 nM
MOLT-4
  GI50: 3.75 µM
TK-10
  GI50: 2140 nM
SK-MEL-28
  GI50: 647 nM
UACC-257
  GI50: 581 nM
BT-549
  GI50: 398 nM
[4]
  GI50: 247 nM
OVCAR-3
  GI50: 404 nM
SK-MEL-5
  GI50: 408 nM
M14
  GI50: 372 nM
OVCAR-5
  GI50: 1750 nM
OVCAR-8
  GI50: 1040 nM
SF-539
  GI50: 576 nM
786-0
  GI50: 1900 nM
SF-295
  GI50: 323 nM
MDA-MB-435
  GI50: 112 nM
HL-60(TB)
  GI50: 382 nM
PC-3
  GI50: 654 nM
SR
  GI50: 382 nM
KM12
  GI50: 365 nM
HT-29
  GI50: 368 nM
A498
  GI50: 251 nM
UO-31
  GI50: 1030 nM
NCI-H23
  GI50: 943 nM
ACHN
  GI50: 1780 nM
SK-MEL-2
  GI50: 397 nM
RPMI-8226
  GI50: 761 nM
[5]
  IC50: 38.9 µM
MDA-MB-468
  GI50: 314 nM
RXF 393
  GI50: 1270 nM
